According to patent US20250120941A1, “Composition for Promoting the Assimilation of an Oligosaccharide” (MORINAGA MILK INDUSTRY CO., LTD., priority 2021, published 2025):

Tests used:
[1] = tested on: intestinal bacteria of infant fecal sample (feces B); assay: Fecal culture: oligosaccharide residual rate in culture supernatant (Test Example 1); format: cell-based, human infant
Method: Fecal samples were obtained from two healthy infants (feces A from an infant and feces B from an infant). The samples were collected immediately after the defecation and immediately moved to 10° C. or lower under an anaerobic condition. The collected feces were diluted with 10 times the amount of physiological saline within eight hours of the defecation and stored at −80° C. until use.
To imitate the environment of the large intestine, a culture experiment was conducted by the following procedures. Bio Jr. 8 100 mLx8 culture apparatus (BJR-25NA1S-8M manufactured by Biott Corporation) was used, and the operations were according to the instructions of the device. The medium components except for the tocopherols and the oligosaccharides were dissolved in purified water and sterilized in an autoclave. The tocopherols and the oligosaccharides which were dissolved in dimethyl sulfoxide (DMSO, FUJIFILM Wako Pure Chemical Corporation) and in purified water, respectively, and which were then sterilized with a filter were added to the medium after the autoclave treatment. The culture temperature was 37° C., and the anaerobic condition was maintained during the culture period by blowing filter-sterilized CO2 into the culture vessels. […]

[2] = tested on: bifidobacterial strains in infant fecal samples (feces A, feces B); assay: Fecal culture: bifidobacterial count by quantitative PCR (Test Example 3); format: cell-based, human infant; conditions: after seven hours of culture, group without tocopherols = 1
Method: The feces A and the feces B prepared in Test Example 1 described above were used as fecal samples.
To imitate the environment of the large intestine, a culture experiment was conducted by the following procedures. Bio Jr. 8 100 mLx8 culture apparatus (BJR-25NA1S-8M manufactured by Biott Corporation) was used, and the operations were according to the instructions of the device. The medium components except for the tocopherols and the oligosaccharides were dissolved in purified water and sterilized in an autoclave, and the tocopherols and the oligosaccharides which were dissolved in dimethyl sulfoxide (DMSO, FUJIFILM Wako Pure Chemical Corporation) and in purified water, respectively, and which were then sterilized with a filter were added to the mixture after the autoclave treatment. The culture temperature was 37° C., and the anaerobic condition was maintained during the culture period by blowing filter-sterilized CO2 into the culture vessels. After adjusting the pH to 7.0, 100 μL (10 mg in terms of feces) of the fecal samples, which were diluted with physiological saline, were added, and anaerobic culture was started. To imitate the pH in the large intestine of an infant, the pH was controlled by neutralizing with 1M Na2CO3 when the pH became lower than 5.5 during the culture period. The media were collected 7 hours after starting the culture and centrifuged at 8000 rpm for 3 min at 4° C., and the supernatants and the precipitates were collected.
Using GENE PREP STAR PI-480 automated isolation system (Kurabo Industries Ltd. Japan), DNA was extracted from the precipitates collected in (2). Using the extracted DNA as templates and using the primers of SEQ ID NO: 1 (ctcctggaaacgggtgg) and SEQ ID NO: 2 ([…]), quantitative PCR was conducted with Applied Bio systems 7500 Fast & 7500 Real-Time PCR System (manufactured by Thermo Fisher), and the bacterial counts of bifidobacterial strains were measured. The PCR conditions were 40 cycles of denaturation at 95° C. for 5 seconds, subsequent annealing at 55° C. for 20 seconds and elongation at 72° C. for 30 seconds.
The bacterial counts of bifidobacterial strains after seven hours of culture, which were measured by the quantitative PCR, are shown in Table 5. The bacterial counts are the relative values where the bacterial counts of the groups without the addition of the tocopherols are regarded as 1.

| SMILES | 2′-FL Residual Rate ([1]; after 7-hr culture, YCFA medium, before culture = 100) | assimilation of 2′-fucosyllactose (in words) ([1]; after seven hours of culture) | bifidobacterial Count (Relative Value) ([2]; Feces A) | bifidobacterial Count (Relative Value) ([2]; Feces B) |
| --- | --- | --- | --- | --- |
| C[C@@H]1O[C@@H](O[C@H]2[C@H](O[C@H]3[C@H](O)[C@@H](O)C(O)O[C@@H]3CO)O[C@H](CO)[C@H](O)[C@@H]2O)[C@@H](O)[C@H](O)[C@@H]1O (stereo partly drawn) [Comparative Example 1, 2′-Fucosyllactose] | 114 mass % | remained in the supernatant without being assimilated | 1 | 1 |
| CC(=O)N[C@H]1[C@H]([C@H](O)[C@H](O)CO)O[C@@](OC[C@H]2O[C@@H](O[C@H]3[C@H](O)[C@@H](O)[C@H](O)O[C@@H]3CO)[C@H](O)[C@@H](O)[C@H]2O)(C(=O)O)C[C@@H]1O [Comparative Example 9, 6′-Sialyllactose] | – | – | 1 | 1 |
